Data taken from PubChem BioAssay (NCI).
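Interpolation was linear, between the two tested concentrations surrounding the appropriate level; five concentrations were tested over 48 hours in 96-well plates. GI50: concentration for 50% inhibition of growth. TGI denotes the concentration required for complete inhibition of growth.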

Key:
Test in all cases: growth of human tumour cells (NCI), 48 h
A549 NSCLC = system: A549 NSCLC
CAKI-1 renal = system: CAKI-1 renal
SR leukemia = system: SR leukemia
SNB-75 CNS = system: SNB-75 CNS
HOP-62 NSCLC = system: HOP-62 NSCLC
SK-OV-3 ovarian = system: SK-OV-3 ovarian
HT29 colon = system: HT29 colon
786-0 renal = system: 786-0 renal

SMILES | TGI (A549 NSCLC) [µM] | TGI (CAKI-1 renal) [µM] | TGI (SR leukemia) [µM] | TGI (SNB-75 CNS) [µM] | TGI (HOP-62 NSCLC) [µM] | TGI (SK-OV-3 ovarian) [µM] | TGI (HT29 colon) [µM] | TGI (786-0 renal) [µM] | GI50 (A549 NSCLC) [µM] | GI50 (SK-OV-3 ovarian) [µM]
COc1cc(/C=C/C(=N\NS(=O)(=O)c2ccc(C)cc2)c2sc(NNC(C)=O)nc2C)ccc1O | > 100 | > 100 | > 100 | > 100 | > 100 | > 100 | > 100 | > 100 |  | 
COc1ccc(C(OCC2OC(n3cc(C)c(=O)[nH]c3=O)CC2n2cc(Cn3cc(I)c(=O)[nH]c3=O)nn2)(c2ccccc2)c2ccccc2)cc1 (stereo not drawn) | > 100 | > 100 | > 100 | > 100 | > 100 | > 100 | > 100 | > 100 |  | 
Cc1cn(C2CC(n3cc(Cn4cc(I)c(=O)[nH]c4=O)nn3)C(CO)O2)c(=O)[nH]c1=O (stereo not drawn) | > 100 | > 100 |  | > 100 | > 100 | > 100 |  |  |  | 
Oc1cccc2c(Cl)ccnc12 | > 100 | > 58.5 | 9.57 | > 100 | > 100 | 96.9 | 33.6 | > 100 |  | 
CC1(C)N=C(/C(Cl)=[N+](/[O-])C(=O)c2ccc(F)cc2)C(C)(C)N1O | > 100 | 34.5 | 27.8 | 32.7 | 40 | 47 | 41 | 27.7 |  | 
c1ccc(N=C2SC3=Nc4cccc5cccc(c45)N3C2=Nc2ccccc2)cc1 |  | > 100 | > 100 | > 100 | > 100 | > 100 | > 100 |  |  | 
Clc1cc(OC2C3CC4CC(C3)CC2C4)nc(Cl)n1 (stereo not drawn) | 95.9 |  | 11.7 | 86.7 | 67.1 | > 100 | 30.5 | 33.5 |  | 
Oc1cc2c3c(c1)c1cc4c(cc1c[n+]3CC2)OCO4 | > 88.5 | > 50.3 |  | 26.3 | > 100 | > 100 | > 42.2 | > 24.4 |  | 
C=C(Br)C(C)(Cl)CCC(Br)C(C)(C)Cl (stereo not drawn) | > 100 | > 100 | > 100 |  | > 100 | > 100 | > 100 | 39.9 |  | 
O=[N+]([O-])C(=C1NCCN1)/C(Cl)=C(\Cl)Br | > 100 | 30 | 55.4 | > 86.3 | > 100 | > 100 | > 59 | 33.5 |  | 
CC1=C(C)[C@@]2(C)O[C@@]2(C)O[C@@]2(C)O[C@@]12C | > 100 | > 100 | > 100 | > 100 | > 100 | > 100 | > 100 |  |  | 
O=S1(=O)NC(=NCc2c[nH]c3ccccc23)N(c2ccccc2)c2ccncc21 | > 100 | > 100 |  | 43.3 | > 100 | > 100 | > 100 | > 100 |  | 
CCCNC1=C2CC(C)CC(OC)[C@@H](O)[C@H](C)/C=C(\C)C(OC(N)=O)C(OC)/C=C\C=C(/C)C(=O)NC(=CC1=O)C2=O (stereo partly drawn) | 27.9 | > 100 |  |  | 44.4 | > 100 | 10.9 | > 100 | 0.514 | 0.0747
COc1c(C)c(C/C=C(\C)CCCCO[Si](c2ccccc2)(c2ccccc2)C(C)(C)C)c(OC)c(OC)c1OC | 51 | 48.1 | > 46.4 | > 46.4 | > 46.4 | > 46.4 | > 46.4 | 40.5 |  | 
O=C(O)c1cccc2c1/C(=N/Nc1ccccc1)CC2 |  | > 100 | > 100 |  | > 100 | > 100 | > 100 | > 100 |  | 
Nc1cccc2cc(Cl)cnc12 | > 100 | > 100 | > 100 | > 100 | > 100 | > 100 | > 100 | > 100 |  | 
N=c1n(C(=O)N2CCCC2)c2cc(Cl)ccc2n1C1=NCCN1 | > 100 | > 100 | > 100 |  | > 100 | > 100 | > 100 | > 100 |  | 
COC(=O)[C@H](Cc1c[nH]c2ccccc12)NP(=O)(O)OCC1C=CC(n2cc(C)c(=O)[nH]c2=O)O1 (stereo partly drawn) |  | > 100 |  | > 100 | > 100 |  | > 100 | > 100 |  | 
FC(F)(F)c1cc(Cl)cnc1N/N=C(/c1ccccc1)c1ccccn1 | 22.9 | 22.7 |  | 3.33 | 19.7 | 9.9 | 20.5 | 16.4 |  | 
CCOC(=O)C(NC(C)=O)(Nc1ccc(F)cc1)C(F)(F)F (stereo not drawn) | > 100 | > 100 | > 100 | > 100 |  | > 100 | > 100 |  |  | 
COC(=O)c1cc2c(n1S(=O)(=O)c1ccc(C)cc1)C(=O)C(=O)c1[nH]cc(C(=O)OCc3ccccc3)c1-2 | 0.351 | 1.28 | 0.802 | 0.3 | 0.385 | 2.13 | 1.15 | 1.07 |  | 
Cc1cccc(/C=N/NC(=S)Nc2ccccc2)n1 | > 100 | > 42.3 | > 100 | 32.3 | 17.8 | > 68.7 | > 100 | 9.14 |  | 
O=C(O)CN(CC(=O)O)C1CCCCC1N(CC(=O)O)CC(=O)NCCN=C=S (stereo not drawn) | > 100 | > 100 |  |  | > 100 | > 100 | > 100 |  |  | 
COc1cc(/C=C2\S/C(=N/Nc3nc(-c4ccc(Br)cc4)cs3)NC2=O)cc(OC)c1OC | 56.7 | 46.6 |  | 77.2 | 30.3 | 34.7 | 32.5 | 26.5 |  | 
COc1cc([C@@H]2c3cc4c(cc3[C@@H](Nc3ccc([N+](=O)[O-])cc3C(=O)c3ccccc3)[C@H]3COC(=O)[C@H]23)OCO4)cc(OC)c1OC | > 100 | > 100 | > 100 | > 100 | > 100 | > 100 | > 100 | > 100 |  | 
O=C(Cc1cccs1)N[C@@H]1C(=O)N2C(C(=O)OC(c3ccccc3)c3ccccc3)=C(CO)CS[C@H]12 | > 100 | > 100 | > 100 |  |  | > 100 |  | > 100 |  | 

SMILES | TGI (A549 NSCLC) [µM] | TGI (CAKI-1 renal) [µM] | TGI (SR leukemia) [µM] | TGI (SNB-75 CNS) [µM] | TGI (HOP-62 NSCLC) [µM] | TGI (SK-OV-3 ovarian) [µM] | TGI (HT29 colon) [µM] | TGI (786-0 renal) [µM] | GI50 (A549 NSCLC) [µM] | GI50 (SK-OV-3 ovarian) [µM]
Oc1ccc(-c2nc(-c3cccnc3)c(-c3ccc(F)cc3)[nH]2)cc1 | 65 | 78.6 | 85 | 35 | 36.7 | 57.1 | 32.5 | 59 |  | 
CC(C)/C(Cl)=N\OC(=O)Nc1ccc(S(N)(=O)=O)cc1 | 37.9 | 31.1 | 5.17 | 25.4 | > 57.2 | 31.5 | 48.4 | 31 |  | 
Cc1ccc(SCC(CSCCO)OCn2cnc3c2NC(N)=NC32OCCO2)cc1 (stereo not drawn) | > 100 | > 100 | > 100 | > 100 | > 100 | > 100 | > 100 | > 100 |  | 
N#CC1=C(N)N(c2ccccc2)C(c2ccco2)C1(C#N)C#N (stereo not drawn) | > 100 | > 100 | 51.1 | 66.8 | 54.3 | > 100 | 37.1 | 35.1 |  | 
CC[C@@]1(C[C@H]2C[C@@]3(C(=O)OC)c4[nH]c5ccccc5c4CCN3C2=O)COC2(CCCCC2)O1 | > 100 | > 100 | > 100 | > 100 | > 100 | > 100 | > 100 | > 100 |  | 
O=[N+]([O-])/C(C(Cl)=C(Cl)Cl)=C(\SCc1ccccc1)N1CCCCC1 | > 100 | > 100 | > 100 |  | > 100 | > 100 | 82.4 | 36.3 |  | 
CNC(=O)OCC1=C(COC(=O)NC)C(C)N(c2ccc(OC)cc2)C1 (stereo not drawn) | > 100 |  | 93.8 | > 100 | > 100 | > 100 | > 100 | > 100 |  | 
O=C(CCC(=O)c1ccc(Cl)cc1)NO | > 100 | > 100 | > 100 | > 100 | > 100 | > 100 | > 100 | > 100 |  | 
COc1ccc(CNc2nc(NCc3ccc(OC)c(OC)c3)nc(NC3CCCCC3)n2)cc1 | > 100 | > 100 | > 100 | > 100 |  | > 100 | > 100 | > 100 |  | 
COC(=O)[C@H]1CO[C@@H](C(C)(C)C)N1C(=O)N1C=CC(=O)C[C@@H]1C | > 100 | > 100 | > 100 | > 100 | > 100 | > 100 | > 100 | > 100 |  | 
CCNC(=S)N/N=C/c1cc([N+](=O)[O-])ccc1O | > 100 |  | 59.3 | > 100 | > 100 | > 100 | > 100 | > 100 |  | 
Clc1ccc(/C=C/c2nc3ccccc3s2)cc1Cl | > 100 | 48.6 | > 100 | 40.9 | 55.8 | > 100 | > 100 | 32.1 |  | 
CC(=O)O[C@H]1C(=O)[C@]2(C)[C@@H](OC(=O)OCCC(O)CO)C[C@H]3OC[C@@]3(OC(C)=O)[C@H]2[C@H](OC(=O)c2ccccc2)[C@]2(O)C[C@H](OC(=O)[C@H](O)[C@@H](NC(=O)c3ccccc3)c3ccccc3)C(C)=C1C2(C)C (stereo partly drawn) | > 100 | > 42.3 |  | 0.158 | 21.6 |  | 0.526 | 6.05 |  | 
O=C1C(=Cc2ccc(O)cc2)N=C(c2ccccc2)N1n1c(-c2ccccc2)nc2ccccc2c1=O | > 100 | > 100 |  | > 100 | > 100 | > 100 | > 100 | > 100 |  | 
CN1CCN([C@H]2C[C@H]3[C@@H]4CC=C5C[C@@H](O)CC[C@]5(C)[C@H]4CC[C@]3(C)C2=O)CC1 | > 100 | > 100 | 70.1 | > 100 | > 100 | > 100 | > 100 | > 100 |  | 
O=C1/C(=C/c2ccc(O)cc2)CC/C1=C\c1ccc(O)cc1 | > 100 | > 100 | > 100 | > 100 | > 100 | > 100 | > 100 | > 100 |  | 
CCC[C@@H](O)C[C@@H]1CCC[C@H](C[C@@H](O)CC)N1C | > 100 | > 100 | > 100 |  | > 100 | > 100 | > 100 | > 100 |  | 
C=C(C1=CC(=O)C(C)(C)O1)[C@@H]1CC=C([C@@H]2CC[C@H]3[C@@]2(C)CC[C@H]2C(C)(C)C(=O)[C@H](O)C[C@]32C)[C@H](O)O1 | 30.7 | 14.2 |  | 25.1 | 8.33 | 27.9 | 3.48 | 0.79 |  | 
Cc1cn(C2CC(N(O)C(N)=O)C(CO)O2)c(=O)[nH]c1=O (stereo not drawn) | > 100 | > 100 |  |  | > 100 | > 100 | > 100 | > 100 |  | 
CCc1ccc(CCN2CCCCC2)nc1 | > 100 | > 100 |  |  | > 100 | > 100 | > 100 | > 100 |  | 
CCOc1cc2c(cc1O)/C(=N\OC)C[C@@H]1[C@@H]2CC[C@]2(C)[C@@H](O)CC[C@@H]12 | > 100 | > 23.4 | 0.0585 | 0.21 | 26.4 | > 100 | 15.3 |  |  | 
CC[C@@]1(O)C(=O)OCc2c1cc1n(c2=O)Cc2c-1nc1ccccc1c2/C=N\NC(=O)CN | > 100 |  | 0.464 | 6.21 | 3.73 |  | > 49.7 | 5.7 |  | 
CC1=CC2C(O1)C1C(=O)C=CC(=O)C1=CC2[N+](=O)[O-] (stereo not drawn) | 43.5 | 9.33 |  | > 68.1 | 48.7 | > 100 | 45.7 | 27.6 |  | 
C(/c1ccco1)=c1/nc(-c2ccccc2)n2c1nc1ccccc12 | > 100 | 72.2 | 43 |  | > 100 | > 100 | > 100 | > 100 |  | 
COc1cc2c(cc1OC)C(c1ccccc1CCCCl)=NCC2 | > 100 | > 100 |  | > 100 | > 100 | > 100 | > 100 | > 100 |  | 
